{"source": "patent US10242153B2", "about": "“Method for determining the risk profile of neoplastic tissue” (NOVAZOI THERANOSTICS, priority 2014, dated 2019)", "key": {"[1]": {"test_system": "PLK4, Cyclin E, and Aurora A", "experiment": "Western blotting of markers of centrosome amplification", "assay_type": "cell-based", "conditions": "PC3 cells, 25 μM"}, "[2]": {"test_system": "MDA-MB-231 (231), PC3, and HeLa cells", "experiment": "Mitotic arrest (MA) metrics by flow cytometry (anti-MPM2) across cell lines", "assay_type": "cell-based", "excerpt": "FIG. 10 depicts mitotic arrest metrics across cell lines for each declustering drug. […] A lack of box in the plot occurs when the median is very close (or equal) to the inter-quartile range limits, in which case notch is shown with a default height and starting point of whisker line extension indicates 25% or 75% position. Because the coarse-grained data are integers and the size of the data sets are small (n<8), in some cases the median, lower or upper inter-quartile range values, or the max or min values, may coincide in some combination. This figure broadly visualizes clustering and correlation in the coarse-grained data. For instance, non-integer values have no intrinsic meaning but, for instance, a median value of 4.4 indicates a concentration of categories recorded in categories 4 or 5. […] TRH=“time reach highest” value; CTP=“consecutive time points,” MA_totCTP=sum(MA_SnCTP for n=2 . . . 5).\nTo evaluate the impact of putative declustering drugs on cell cycle progression and hypodiploidy (<2N DNA content, which may indicate apoptotic cells), MDA-MB-231 (231), PC3, and HeLa cells were treated with different concentrations of declustering drugs, stained with propidium iodide, labeled with anti-MPM2 antibody, and then assessed by flow cytometry at multiple time points over 48 hr. […]"}, "[3]": {"test_system": "human ovarian cancer xenografts", "conditions": "nude mice carrying human ovarian cancer xenografts; cited from earlier work"}, "231, HeLa and PC3 cells": {"test_system": "231, HeLa and PC3 cells", "experiment": "Centrosome amplification (CA) by microscopy across cancer cell lines", "assay_type": "cell-based", "conditions": "25 μM", "description": "Consequently, CA was assessed in cultures treated with different concentrations of declustering drugs for 6, 12, 18, or 24 h and untreated controls via microscopy. Centrosomes were identified by γ-tubulin and centrin-2 colocalization at discrete foci.\nThe peak percent CA detected over 24 h is shown in FIG. 13 (only statistically significant (P<0.05) increases over control values are represented in the Figures).\nTo better understand the “potency” of drug-induced CA with time, the average fold change in CA over controls over 24 h was assessed (FIG. 12, panel A), whereby the extent of CA across time points (i.e., 6, 12, 18, and 24 hr) was averaged and then divided by the extent of CA in control (i.e., 0 hr). All of the drugs at least doubled the peak extent of CA in all cell lines tested (FIG. 12, panel A), although the final extent of CA could be small or large in magnitude depending on the initial centrosomal burden as shown in FIG. 11. […] The extent of CA was less in interphase cells, with maximum values of 31% and 87% for 10 and 25 μM RBN (FIG. 13, panel A). […] The peak extent in interphase HeLa cells was somewhat less at 30.7% and 48.1% for 10 and 25 μM RBN, respectively (FIG. 13, panel A). For Nos and BN, there was no major difference in CA levels in interphase versus mitotic cells."}, "[4]": {"test_system": "ZR-75-30 cells with amplified centrosomes (ZR-A)", "experiment": "Sub-G1 population in ZR-75-30 cells with amplified centrosomes (ZR-A) versus parent cells", "assay_type": "cell-based", "conditions": "25 μM, 48 h", "description": "Panel A depicts representative DNA histograms comparing cell-cycle kinetics of ZR-75-30 cells and ZR-A cells treated with bromonoscapine (BN, 25 μM), griseofulvin (GF, 25 μM) or PJ34 (25 μM), respectively for 48 h. […] Panel B depicts a quantitative comparison of sub-G1 population in ZR-75-30 and ZR-A cells upon treatment with the three drugs with the same concentration (25 μM) for the same duration (48 h).\nAccordingly, these cells can be pharmacologically manipulated with aphidicolin to generate extra centrosomes. […] Following aphidicolin wash-out, cells were stained using anti-centrin-2 antibodies to verify extra centrosomes by immunofluorescence confocal microscopy. About ˜60% ZR-75-30 cells generated extra centrosomes (6-8 per cell) and were evaluated for their sensitivity to the three drugs, griseofulvin, bromonoscapine, and PJ34, and compared with parent ZR-75-30 cells with normal centrosomes."}, "N1E-115 cells": {"test_system": "N1E-115 cells", "experiment": "Neuritogenesis (neurite extension) in serum-starved N1E-115 cells", "assay_type": "cell-based, murine", "conditions": "48 h, PJ-34 10 μM, Paclitaxel 0.05 μM", "description": "N1E-115 cells grown in serum-starved (SS) medium were evaluated to determine the extent of neurite formation after 48 h of treatment with RedBr-Nos (5 μM), Griseofulvin (10 μM), PJ-34 (10 μM), Paclitaxel (0.05 μM) treatment or untreated control cells (i.e., serum-starved medium (SS) alone). Panels Ai and Aii depict quantitative bar graphs representing the average length of neurites and percentage of population of cells showing neurite length >10 μm, respectively. A hundred cells were counted in each case. […] Panel B depicts an immunoblot showing CLASP1 expression levels in control (C) and CLASP1 siRNA-transfected N1E-115 cells.\nNeuritogenesis is a process in nerve cells involving the extension of polarized, elongated neurites. N1E-115 cells usually extend only one major neurite per cell, which can vary in length from 5 to 500 μm. The growth cones of the neurites serve as primary focal points of motility. The effect of declustering agents on cell motility was evaluated by assessing the length and frequency of neurites formed in a serum-free medium on a laminin-coated surface."}}}
{"compound": "reduced-9-bromonoscapine [RBN]", "values": [{"measurement": "expression of Cyclin E and PLK4", "setting": "[1]", "result": "increased Cyclin E and PLK4 expression"}, {"measurement": "peak MA (MA:HR), cells in MA", "setting": "[2]; category near \"4\"", "result": "≥ 30", "unit": "%"}, {"measurement": "toxicity in normal tissues", "setting": "[3]", "result": "toxicity was not detected"}, {"measurement": "tumor progression", "setting": "[3]", "result": "inhibited tumor progression"}, {"measurement": "induction of CA", "setting": "231, HeLa and PC3 cells", "result": "induced CA in all three cell lines"}]}
{"compound": "CN(C)CC(=O)Nc1ccc2[nH]c(=O)c3ccccc3c2c1", "note": "[PJ, PJ-34]", "values": [{"measurement": "sub-G1 population versus parent ZR-75-30 cells", "setting": "[4]", "result": "much higher sub-G1 population compared to parent ZR-75-30 cells"}, {"measurement": "inhibition of neurite extension", "setting": "N1E-115 cells", "result": "moderate inhibition"}, {"measurement": "mean time to peak MA (MA:TRH)", "setting": "[2]; coarse-grained categories", "result": "~12", "unit": "h"}]}
